Assay [1] deals with ES-1 (Ewing's sarcoma cells) xenografts. Put plainly: Tumor growth of ES-1 xenografts in nude mice. To be noted: 28 mg/kg i.p. daily 4-6 days, then 4-6 days without treatment, FIG. 6. Format: in vivo. On the procedure: (§1) Control mice were treated with the solvent. 3-6 animals were treated in each group.
(§2) Because of the toxicity of podophyllotoxin and deoxypodophyllotoxin, we only used picropodophyllin to analyze effects on tumor xenografts. For this purpose ES-1 (Ewing's sarcoma cells) and BE (melanoma cells) xenografts were established in nude mice. When the ES-1 and BE tumors started growing subcutaneously and were measurable, mice were treated daily with intraperitoneal injections of picropodophyllin (28 mg/kg, which was required for giving an average concentration above 0.05 μM of picropodophyllin in the blood plasma) or 80% DMSO in saline as a carrier for 4-6 days, followed by 4-6 days without treatment. The mice were then killed and the tumors analyzed by an experienced pathologist.

Assay [2] relates to BE (melanoma cells) xenografts. Put plainly: Tumor growth of BE xenografts in nude mice. It counts as in vivo. To be noted: 28 mg/kg i.p. daily 4-6 days, then 4-6 days without treatment, FIG. 6. On the procedure: as §1, §2
The subject of assay [3] is BE malignant melanoma cell line. In words: Cell viability (XTT), BE. It counts as cell-based. The following applies: 48 h. As to the method: Cell proliferation kit II (Roche Inc.) is based on colorimetric change of the yellow tetrazolium salt XTT in orange formazan dye by the respiratory chain of viable cells (Roehm, N W, et al., J Immunol Methods 142:257-265, 1991). Cells seeded at a concentration of 5000/well in 100 μl medium in a 96-well plate were treated with different drugs in the given concentration. After 24 or 48 h the cells were incubated, according to the manufacturer's protocol, with XTT labelling mixture. After 4 h the formazan dye is quantified using a scanning multiwell spectrophotometer with a 495-nm filter. The absorbance is directly correlated with the number of viable cells. The standard absorbance curve was drawn by means of untreated cells seeded at a concentration of from 1000 to 10 000 cells/well with an increasing rate of 1000 cells/well. All standards and experiments were performed in triplicates.
12 different types of cell lines were seeded in 96-well plates (medium volume in a well was 100 μl), at a concentration of 10,000 cells/cm^2 in Minimal Essential Medium supplemented with fetal calf serum. When the cells had reached a concentration of 65,000 cells/cm^2, they were treated with different doses of podophyllotoxin and picropodophyllin for 48 h. Cell viability was then assayed (see above). […]

`COc1cc([C@@H]2c3cc4c(cc3[C@H](O)[C@H]3COC(=O)[C@@H]23)OCO4)cc(OC)c1OC` [Picropodophyllin, picropodophyllin]: the “Effect on tumor growth” value in assay [1] and in assay [2] was “significantly inhibited growth” throughout.

Take `COc1cc([C@@H]2c3cc4c(cc3[C@H](O)[C@H]3COC(=O)[C@H]23)OCO4)cc(OC)c1OC` [Podophyllotoxin, podophyllotoxin]: it took 0.05 µM to reach a half-maximal effect in assay [3] (EC50).

The values are drawn from patent US7662851B2, “Use of specific cyklolignans” (Axelar AB, priority 2001, dated 2010).
